From patent US20260151372A1, “AZOTOMYCIN PRODRUGS WITH PREFERENTIAL TUMOR DELIVERY” (The Johns Hopkins University, priority 2022, published 2026)

Legend:
Format in all cases: in vitro ADME
[1] = Metabolic stability in CES1-KO mouse liver homogenate; settings: tissue homogenate, 10 μM, 37° C.
Experimental: (§1) In vitro stability studies were done using CES1KO mouse plasma, human plasma, CES1-KO mouse liver, and human liver microsomes as previously described. For tissue homogenate stability studies, washed tissue was diluted 10-fold in 0.1 M potassium phosphate buffer and homogenized using probe sonication. Crude homogenate was then aliquoted to 1 mL, and spiked with 10 mM stock of the analyte in DMSO to achieve a 10 μM final concentration. The plasma stability of the prodrugs was determined by spiking the analyte in 1 mL of plasma. The plasma and tissues were incubated in an orbital shaker at 37° C. Stability in human liver microsomes was assessed at a final prodrug concentration of 1 μM with 0.2 mg/mL protein for microsomes. All the stability studies were conducted at predetermined times (0 and 60 min), where 50 μL aliquots of the mixture in triplicate were removed and the reaction was quenched by addition of 5 times the volume of ice-cold methanol spiked with the internal standard (losartan: 0.5 μM). The samples were vortex-mixed for 30 s and centrifuged at 10,000 g for 10 min at 4° C. An amount of 50 μL of the supernatant was diluted with 50 μL of water and transferred to a 250 μL polypropylene vial sealed with a Teflon cap. Prodrug disappearance was monitored over time using liquid chromatography and mass spectrometry (LC-MS).
(§2) Analyses were performed on a Dionex ultra high-performance LC system coupled with Q Exactive Focus orbitrap mass spectrometer (Thermo Fisher Scientific Inc., Waltham MA). Separation was achieved using Agilent Eclipse Plus column (100×2.1 mm i.d., maintained at 35° C.) packed with a 1.8 μm C18 stationary phase. The mobile phase consisted of 0.1% formic acid in water and 0.1% formic acid in acetonitrile, […] were operated at a flow rate of 0.3 mL/min for 7 min using gradient elution. The mass spectrometer controlled by Xcalibur software 4.0.27.13 (Thermo Scientific) was operated with a HESI ion source in positive ionization mode. Metabolites were identified in the full-scan mode (from m/z 50 to 1600) by comparing […] samples

[2] = Metabolic stability in human liver microsomes; settings: 1 μM prodrug, 0.2 mg/mL protein
Experimental: as §1, §2

[3] = Plasma stability in CES1KO mouse plasma; settings: 37° C., 60 min
Experimental: as §1, §2

[4] = Plasma stability in human plasma; settings: 37° C.
Experimental: as §1, §2

Row | Compound | Liver Stability (% Remaining at 60 min) CES1^−/− Mouse Liver [1] | Liver Stability (% Remaining at 60 min) Human Liver Microsomes [2] | Plasma Stability (% Remaining at 60 min) CES1^−/− Mouse Plasma [3] | Plasma Stability (% Remaining at 60 min) Human Plasma [4]
1 | [N-]=[N+]=CC(=O)CC[C@H](NC(=O)[C@H](CCC(=O)C=[N+]=[N-])NC(=O)CC[C@H](N)C(=O)O)C(=O)O [Azotomycin] | 89.7 ± 0.88% | 23.7 ± 0.333% | 105 ± 7.64% | 74.3 ± 1.20%
2 | CC(C)(C)OC(=O)[C@H](CCC(=O)C=[N+]=[N-])NC(=O)[C@H](CCC(=O)C=[N+]=[N-])NC(=O)CC[C@H](N)C(=O)OC(C)(C)C [Prodrug P1, tert-Butyl (S)-2-((S)-2-((S)-4-amino-5-(tert-butoxy)-5-oxopentanamido)-6-diazo-5-oxohexanamido)-6-diazo-5-oxohexanoate] | 87.0 ± 8.51% | 105 ± 0.859% | 101 ± 3.38% | 104 ± 1.00%
3 | CC(=O)N[C@@H](CCC(=O)N[C@@H](CCC(=O)C=[N+]=[N-])C(=O)N[C@@H](CCC(=O)C=[N+]=[N-])C(=O)OC(C)(C)C)C(=O)OC(C)(C)C [Prodrug P2] | 100 ± 1.67% | 85.3 ± 7.88% | 104 ± 2.31% | 110 ± 4.70%
4 | [N-]=[N+]=CC(=O)CC[C@H](NC(=O)[C@H](CCC(=O)C=[N+]=[N-])NC(=O)CC[C@H](N)C(N)=O)C(N)=O [Prodrug P5, (S)-4-Amino-N1-((S)-1-(((S)-1-amino-6-diazo-1,5-dioxohexan-2-yl)amino)-6-diazo-1,5-dioxohexan-2-yl)pentanediamide] | 4.33 ± 0.882% | 95.4 ± 0.595% | 87.7 ± 8.51% | 97.3 ± 2.85%
5 | CC(=O)N[C@@H](CCC(=O)N[C@@H](CCC(=O)C=[N+]=[N-])C(=O)N[C@@H](CCC(=O)C=[N+]=[N-])C(N)=O)C(N)=O [Prodrug P6, (S)-4-Acetamido-N1-((S)-1-(((S)-1-amino-6-diazo-1,5-dioxohexan-2-yl)amino)-6-diazo-1,5-dioxohexan-2-yl)pentanediamide] | 85.0 ± 5.86% | 98.5 ± 0.676% | 99.0 ± 3.51% | 105 ± 1.76%
6 | CN(C)CC(=O)N[C@@H](CCC(=O)N[C@@H](CCC(=O)C=[N+]=[N-])C(=O)N[C@@H](CCC(=O)C=[N+]=[N-])C(N)=O)C(N)=O [Prodrug P7, (S)—N1-((S)-1-(((S)-1-Amino-6-diazo-1,5-dioxohexan-2-yl)amino)-6-diazo-1,5-dioxohexan-2-yl)-4-(2-(dimethylamino)acetamido)pentanediamide] | 109 ± 10.0% | 95.3 ± 0.168% | 98.0 ± 12.5% | 98.7 ± 2.67%
7 | CN(C)CC(=O)N[C@@H](Cc1c[nH]c2ccccc12)C(=O)N[C@@H](CCC(=O)N[C@@H](CCC(=O)C=[N+]=[N-])C(=O)N[C@@H](CCC(=O)C=[N+]=[N-])C(N)=O)C(N)=O [Prodrug P8, (S)—N1-((S)-1-(((S)-1-Amino-6-diazo-1,5-dioxohexan-2-yl)amino)-6-diazo-1,5-dioxohexan-2-yl)-4-((S)-2-(2-(dimethylamino)acetamido)-3-(1H-indol-3-yl)propanamido)pentanediamide] | 49.7 ± 0.333% | 95.8 ± 0.141% | 99.3 ± 1.45% | 109 ± 1.00%
8 | CN(C)CC(=O)N[C@@H](CCC(=O)N[C@@H](CCC(=O)C=[N+]=[N-])C(=O)N[C@@H](CCC(=O)C=[N+]=[N-])C(=O)[O-])C(=O)OC(C)(C)C.[Na+] [Prodrug P14, Sodium (6S,11S,14S)-6-(tert-butoxycarbonyl)-11,14-bis(4-diazo-3-oxobutyl)-2-methyl-4,9,12-trioxo-2,5,10,13-tetraazapentadecan-15-oate] | 82.4 ± 4.03% | 103 ± 2.31% | 111 ± 4.09% | 96.2 ± 3.21%
9 | CN(C)CC(=O)N[C@@H](CCC(=O)N[C@@H](CCC(=O)C=[N+]=[N-])C(=O)N[C@@H](CCC(=O)C=[N+]=[N-])C(=O)OC(C)(C)C)C(=O)[O-].[Na+] [Prodrug P15, Sodium N^5—((S)-1-(((S)-1-(tert-butoxy)-6-diazo-1,5-dioxohexan-2-yl)amino)-6-diazo-1,5-dioxohexan-2-yl)-N^2-(dimethylglycyl)-L-glutaminate] | 99.9 ± 3.45% | 93.2 ± 4.29% | >100% | 104 ± 8.45%

Continued, values first:

Row | Liver Stability (% Remaining at 60 min) CES1^−/− Mouse Liver [1] | Liver Stability (% Remaining at 60 min) Human Liver Microsomes [2] | Plasma Stability (% Remaining at 60 min) CES1^−/− Mouse Plasma [3] | Plasma Stability (% Remaining at 60 min) Human Plasma [4] | Compound
10 | 0.320 ± 0.026% | >100% | 84.3 ± 10.5% | 85.9 ± 3.63% | CC(C)OC(=O)[C@H](CCC(=O)C=[N+]=[N-])NC(=O)[C@H](CCC(=O)C=[N+]=[N-])NC(=O)CC[C@H](N)C(=O)OC(C)C [Prodrug P9, Isopropyl (S)-2-((S)-2-((S)-4-amino-5-isopropoxy-5-oxopentanamido)-6-diazo-5-oxohexanamido)-6-diazo-5-oxohexanoate]
11 | 90.4 ± 2.76% | 90.4 ± 4.10% | 104 ± 3.67% | 90.5 ± 6.35% | [N-]=[N+]=CC(=O)CC[C@H](NC(=O)[C@H](CCC(=O)C=[N+]=[N-])NC(=O)CC[C@H](NC(=O)CN)C(=O)[O-])C(=O)[O-].[Na+].[Na+] [Prodrug P10, Sodium (S)-2-((S)-2-((S)-4-(2-aminoacetamido)-4-carboxylatobutanamido)-6-diazo-5-oxohexanamido)-6-diazo-5-oxohexanoate]
12 | 96.3 ± 1.80% | 103 ± 4.97% | 91.8 ± 4.16% | 83.6 ± 1.76% | CCOC(=O)[C@H](CCC(=O)N[C@@H](CCC(=O)C=[N+]=[N-])C(=O)N[C@@H](CCC(=O)C=[N+]=[N-])C(=O)[O-])NC(=O)CN(C)C.[Na+] [Prodrug P11, Sodium (6S,11S,14S)-11,14-bis(4-diazo-3-oxobutyl)-6-(ethoxycarbonyl)-2-methyl-4,9,12-trioxo-2,5,10,13-tetraazapentadecan-15-oate]
13 | 111 ± 9.27% | 99.6 ± 3.50% | 95.6 ± 0.44% | 76.2 ± 7.25% | CN(C)CC(=O)N[C@@H](CCC(=O)N[C@@H](CCC(=O)C=[N+]=[N-])C(=O)N[C@@H](CCC(=O)C=[N+]=[N-])C(=O)[O-])C(=O)[O-].[Na+].[Na+] [Prodrug P12, Sodium (6S,11S,14S)-6-carboxylato-11,14-bis(4-diazo-3-oxobutyl)-2-methyl-4,9,12-trioxo-2,5,10,13-tetraazapentadecan-15-oate]
14 | 1.55 ± 0.77% | 109 ± 2.22% | 107 ± 6.6% | 86.6 ± 2.69% | CCOC(=O)[C@H](CCC(=O)C=[N+]=[N-])NC(=O)[C@H](CCC(=O)C=[N+]=[N-])NC(=O)CC[C@H](NC(=O)CN(C)C)C(=O)O [Prodrug P13, N^5—((S)-6-diazo-1-(((S)-6-diazo-1-ethoxy-1,5-dioxohexan-2-yl)amino)-1,5-dioxohexan-2-yl)-N^2-(dimethylglycyl)-L-glutamine]
15 | 4.50 ± 1.58% | 91.0 ± 1.01% | 4.17 ± 0.58% | 87.4 ± 1.61% | CC(C)C[C@H](N)C(=O)N[C@@H](CCC(=O)N[C@@H](CCC(=O)C=[N+]=[N-])C(=O)N[C@@H](CCC(=O)C=[N+]=[N-])C(=O)[O-])C(=O)[O-].[Na+].[Na+] [Prodrug P16, Sodium (S)-2-((S)-2-((S)-4-((S)-2-amino-4-methylpentanamido)-4-carboxylatobutanamido)-6-diazo-5-oxohexanamido)-6-diazo-5-oxohexanoate]
